Data published in PubChem BioAssay AID1845198 (Molecular Pharmacology Branch, DTP, NCI, 2023).

Tested on: 425362-245-T-J1 tumor spheroids, viability % test/control
Test: Anticancer human tumor 425362-245-T-J1 patient-derived melanoma cell line growth inhibition
Details: spheroids with HUVEC and MSC; for IC50: curve of first compound; for viability, T/C: stronger effect = lower value
In short: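 Complex tumor spheroids combined malignant cells with endothelial cells and mesenchymal stem cells. DNA-damaging drugs and DNA repair inhibitors were tested alone and in combination, at half-log dilutions down from clinical Cmax (top 10 microM if Cmax unknown), 0.25% DMSO final.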

[1] = second compound 1 µM, first compound 0.0316 µM
[2] = second compound 1 µM, first compound 0.1 µM
[3] = second compound 1 µM, first compound 0.316 µM
[4] = second compound 1 µM, first compound 1 µM
[5] = second compound 1 µM, first compound 3.16 µM
[6] = second compound 1 µM, first compound 10 µM
[7] = second compound 3.16 µM, first compound 0.0316 µM
[8] = second compound 3.16 µM, first compound 0.1 µM
[9] = second compound 3.16 µM, first compound 0.316 µM
[10] = second compound 3.16 µM, first compound 1 µM
[11] = second compound 3.16 µM, first compound 3.16 µM
[12] = second compound 3.16 µM, first compound 10 µM
[13] = second compound 10 µM, first compound 0.0316 µM
[14] = second compound 10 µM, first compound 0.1 µM
[15] = second compound 10 µM, first compound 0.316 µM
[16] = second compound 10 µM, first compound 1 µM
[17] = second compound 10 µM, first compound 3.16 µM
[18] = second compound 10 µM, first compound 10 µM
[19] = second compound 31.6 µM, first compound 0.0316 µM
[20] = second compound 31.6 µM, first compound 0.1 µM
[21] = second compound 31.6 µM, first compound 0.316 µM
[22] = second compound 31.6 µM, first compound 1 µM
[23] = second compound 31.6 µM, first compound 3.16 µM
[24] = second compound 31.6 µM, first compound 10 µM
[25] = second compound 100 µM, first compound 0.0316 µM
[26] = second compound 100 µM, first compound 0.1 µM
[27] = second compound 100 µM, first compound 0.316 µM
[28] = second compound 100 µM, first compound 1 µM
[29] = second compound 100 µM, first compound 3.16 µM
[30] = second compound 100 µM, first compound 10 µM
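Note: spheroids exposed to agents for 7 days.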

## CC(C)n1c(=O)n(C)c2cnc3cc(F)c(-c4ccc(OCCCN5CCCCC5)nc4)cc3c21 + Cn1nnc2c(C(N)=O)ncn2c1=O
Second compound 1 µM
  IC50: 124 nM
Second compound 3.16 µM
  IC50: 225 nM
Second compound 10 µM
  IC50: 266 nM
Second compound 31.6 µM
  IC50: 141 nM
Second compound 100 µM
  IC50: < 31.6 nM
[1]
  viability, T/C: 57.7%
[2]
  viability, T/C: 55.8%
[3]
  viability, T/C: 36.1%
[4]
  viability, T/C: 20.8%
[5]
  viability, T/C: 13.7%
[6]
  viability, T/C: 5.19%
[7]
  viability, T/C: 77.4%
[8]
  viability, T/C: 67%
[9]
  viability, T/C: 43%
[10]
  viability, T/C: 20.6%
[11]
  viability, T/C: 19.5%
[12]
  viability, T/C: 6.63%
[13]
  viability, T/C: 74.2%
[14]
  viability, T/C: 72%
[15]
  viability, T/C: 45.1%
[16]
  viability, T/C: 21.4%
[17]
  viability, T/C: 18.9%
[18]
  viability, T/C: 5.99%
[19]
  viability, T/C: 67.8%
[20]
  viability, T/C: 58.5%
[21]
  viability, T/C: 32.8%
[22]
  viability, T/C: 19.8%
[23]
  viability, T/C: 14.5%
[24]
  viability, T/C: 6.37%
[25]
  viability, T/C: 45.8%
[26]
  viability, T/C: 23.7%
[27]
  viability, T/C: 17.5%
[28]
  viability, T/C: 12.1%
[29]
  viability, T/C: 8.75%
[30]
  viability, T/C: 5.3%

## CC1COCCN1c1cc(-c2ccnn2C)c2ccnc(-c3ccn[nH]3)c2n1 (stereo not given) + Cn1nnc2c(C(N)=O)ncn2c1=O
Second compound 1 µM
  IC50: < 31.6 nM
Second compound 3.16 µM
  IC50: < 31.6 nM
Second compound 10 µM
  IC50: < 31.6 nM
Second compound 31.6 µM
  IC50: < 31.6 nM
Second compound 100 µM
  IC50: < 31.6 nM
[1]
  viability, T/C: 34%
[2]
  viability, T/C: 9.93%
[3]
  viability, T/C: 9.37%
[4]
  viability, T/C: 7.42%
[5]
  viability, T/C: 8.52%
[6]
  viability, T/C: 7.26%
[7]
  viability, T/C: 46%
[8]
  viability, T/C: 13.1%
[9]
  viability, T/C: 8.7%
[10]
  viability, T/C: 8.72%
[11]
  viability, T/C: 9.76%
[12]
  viability, T/C: 9.55%
[13]
  viability, T/C: 33.1%
[14]
  viability, T/C: 12.4%
[15]
  viability, T/C: 6.43%
[16]
  viability, T/C: 8.73%
[17]
  viability, T/C: 8.17%
[18]
  viability, T/C: 7.97%
[19]
  viability, T/C: 41.4%
[20]
  viability, T/C: 10.8%
[21]
  viability, T/C: 8%
[22]
  viability, T/C: 8.25%
[23]
  viability, T/C: 8.57%
[24]
  viability, T/C: 9.27%
[25]
  viability, T/C: 16%
[26]
  viability, T/C: 8.9%
[27]
  viability, T/C: 6.62%
[28]
  viability, T/C: 5.43%
[29]
  viability, T/C: 8.9%
[30]
  viability, T/C: 6.85%

## COc1cc(C)[nH]c(=O)c1CN1CCc2c(Cl)cc(C(OC)C3COC3)c(Cl)c2C1=O (stereo not given) + Cn1nnc2c(C(N)=O)ncn2c1=O
Second compound 1 µM
  IC50: > 10000 nM
Second compound 3.16 µM
  IC50: > 10000 nM
Second compound 10 µM
  IC50: > 10000 nM
Second compound 31.6 µM
  IC50: > 10000 nM
Second compound 100 µM
  IC50: > 10000 nM
[1]
  viability, T/C: 87%
[2]
  viability, T/C: 96.6%
[3]
  viability, T/C: 95.9%
[4]
  viability, T/C: 92.1%
[5]
  viability, T/C: 89.8%
[6]
  viability, T/C: 84.7%
[7]
  viability, T/C: 114%
[8]
  viability, T/C: 103%
[9]
  viability, T/C: 110%
[10]
  viability, T/C: 105%
[11]
  viability, T/C: 101%
[12]
  viability, T/C: 92.4%
[13]
  viability, T/C: 104%
[14]
  viability, T/C: 99.9%
[15]
  viability, T/C: 114%
[16]
  viability, T/C: 114%
[17]
  viability, T/C: 95.8%
[18]
  viability, T/C: 97.6%
[19]
  viability, T/C: 113%
[20]
  viability, T/C: 111%
[21]
  viability, T/C: 100%
[22]
  viability, T/C: 107%
[23]
  viability, T/C: 89%
[24]
  viability, T/C: 93.5%
[25]
  viability, T/C: 94.4%
[26]
  viability, T/C: 90.4%
[27]
  viability, T/C: 90.3%
[28]
  viability, T/C: 89.7%
[29]
  viability, T/C: 88.3%
[30]
  viability, T/C: 71.8%

## COc1ccc([C@@H](O)c2cc(-c3ncnc4cc(N5CCOCC5)ccc34)c(F)cc2Cl)nn1 + Cn1nnc2c(C(N)=O)ncn2c1=O
Second compound 1 µM
  IC50: 2300 nM
Second compound 3.16 µM
  IC50: 2570 nM
Second compound 10 µM
  IC50: 2500 nM
Second compound 31.6 µM
  IC50: 2670 nM
Second compound 100 µM
  IC50: 2100 nM
[1]
  viability, T/C: 91%
[2]
  viability, T/C: 95.6%
[3]
  viability, T/C: 87.5%
[4]
  viability, T/C: 70.2%
[5]
  viability, T/C: 42.5%
[6]
  viability, T/C: 19.1%
[7]
  viability, T/C: 101%
[8]
  viability, T/C: 111%
[9]
  viability, T/C: 104%
[10]
  viability, T/C: 76.2%
[11]
  viability, T/C: 45.7%
[12]
  viability, T/C: 20.3%
[13]
  viability, T/C: 111%
[14]
  viability, T/C: 117%
[15]
  viability, T/C: 113%
[16]
  viability, T/C: 74.8%
[17]
  viability, T/C: 46.6%
[18]
  viability, T/C: 22.2%
[19]
  viability, T/C: 110%
[20]
  viability, T/C: 109%
[21]
  viability, T/C: 94%
[22]
  viability, T/C: 78.9%
[23]
  viability, T/C: 44%
[24]
  viability, T/C: 20.8%
[25]
  viability, T/C: 101%
[26]
  viability, T/C: 84.7%
[27]
  viability, T/C: 82.2%
[28]
  viability, T/C: 65.1%
[29]
  viability, T/C: 40.3%
[30]
  viability, T/C: 20.5%

## Cc1cc(C)c(CNC(=O)c2cc(-c3ccc(CN4CCOCC4)cc3)cc3c2cnn3C2CCCC2)c(=O)[nH]1 + Cn1nnc2c(C(N)=O)ncn2c1=O
Second compound 1 µM
  IC50: 2970 nM
Second compound 3.16 µM
  IC50: 3220 nM
Second compound 10 µM
  IC50: 4590 nM
Second compound 31.6 µM
  IC50: 3070 nM
Second compound 100 µM
  IC50: 1470 nM
[1]
  viability, T/C: 90.2%
[2]
  viability, T/C: 100%
[3]
  viability, T/C: 90.8%
[4]
  viability, T/C: 80.7%
[5]
  viability, T/C: 48.4%
[6]
  viability, T/C: 11.2%
[7]
  viability, T/C: 110%
[8]
  viability, T/C: 107%
[9]
  viability, T/C: 105%
[10]
  viability, T/C: 91.7%
[11]
  viability, T/C: 50.5%
[12]
  viability, T/C: 14.6%
[13]
  viability, T/C: 102%
[14]
  viability, T/C: 106%
[15]
  viability, T/C: 114%
[16]
  viability, T/C: 85.4%
[17]
  viability, T/C: 69.6%
[18]
  viability, T/C: 13.1%
[19]
  viability, T/C: 104%
[20]
  viability, T/C: 116%
[21]
  viability, T/C: 100%
[22]
  viability, T/C: 85.4%
[23]
  viability, T/C: 49.3%
[24]
  viability, T/C: 10.9%
[25]
  viability, T/C: 94.6%
[26]
  viability, T/C: 91.4%
[27]
  viability, T/C: 87.4%
[28]
  viability, T/C: 59.6%
[29]
  viability, T/C: 28.6%
[30]
  viability, T/C: 6.56%

## [2H]c1nc(C)nc([2H])c1-c1cc(NC[C@@H](C)c2cccc3c(C(=O)NC)ccnc23)ncn1 + Cn1nnc2c(C(N)=O)ncn2c1=O
Second compound 1 µM
  IC50: > 10000 nM
Second compound 3.16 µM
  IC50: > 10000 nM
Second compound 10 µM
  IC50: > 10000 nM
Second compound 31.6 µM
  IC50: > 10000 nM
Second compound 100 µM
  IC50: > 10000 nM
[1]
  viability, T/C: 88.2%
[2]
  viability, T/C: 96.8%
[3]
  viability, T/C: 95.9%
[4]
  viability, T/C: 71.2%
[5]
  viability, T/C: 93.4%
[6]
  viability, T/C: 76.9%
[7]
  viability, T/C: 108%
[8]
  viability, T/C: 91.8%
[9]
  viability, T/C: 102%
[10]
  viability, T/C: 105%
[11]
  viability, T/C: 109%
[12]
  viability, T/C: 94.4%
[13]
  viability, T/C: 99.2%
[14]
  viability, T/C: 114%
[15]
  viability, T/C: 110%
[16]
  viability, T/C: 107%
[17]
  viability, T/C: 112%
[18]
  viability, T/C: 84.2%
[19]
  viability, T/C: 105%
[20]
  viability, T/C: 113%
[21]
  viability, T/C: 104%
[22]
  viability, T/C: 110%
[23]
  viability, T/C: 101%
[24]
  viability, T/C: 85.5%
[25]
  viability, T/C: 82.7%
[26]
  viability, T/C: 91.3%
[27]
  viability, T/C: 87.4%
[28]
  viability, T/C: 86.5%
[29]
  viability, T/C: 88.2%
[30]
  viability, T/C: 83.5%
